This note sets out measurements from patent US7008957B2, “Bicyclic cyanoheterocycles, process for their preparation and their use as medicaments” (Sanofi-Aventis Deutschland GmbH, priority 2003, dated 2006).

As a reminder, the melting point is the temperature of the solid-liquid transition.

Consider `N#C[C@@H]1CS[C@@H]2C[C@@H](N)C(=O)N12.O=C(O)C(F)(F)F`, for which the melting point is 173.5 °C.

Molecule `N#C[C@@H]1CS[C@H]2C[C@](N)(Cc3ccccc3)C(=O)N12.O=C(O)C(F)(F)F` returned a melting point of 209 °C.
